Patent US20230096145A1, “METHODS OF CONTROLLING OR PREVENTING INFESTATION OF PLANTS BY THE PHYTOPATHOGENIC MICROORGANISM CORYNESPORA CASSIICOLA” (SYNGENTA CROP PROTECTION AG, priority 2020, published 2023)

test system: Corynespora cassiicola; experiment: Corynespora cassiicola liquid culture growth inhibition (microtiter plate, PDB); type: cell-based; details: compared to untreated control, photometric at 620 nm after 3-4 days at 24 C
Description: Conidia of the fungus from cryogenic storage were directly mixed into nutrient broth (PDB potato dextrose broth). A DMSO solution of the test compounds was placed into a microtiter plate (96-well format) and the nutrient broth containing the fungal spores was added to it. The test plates were incubated at 24 C and the inhibition of growth (% control of Corynespora cassiicola) was determined photometrically after 3-4 days at 620 nm. The activity of a compound is derived by comparing the inhibition of growth in the treated test solution to the growth in the untreated check. The concentration of the compounds was 6.7, 2.2, 0.74, 0.25, 0.082 and 0.027 ppm.

Q: For Cc1ccc2c(C3=NC(C)(C)C(F)(F)c4cc(F)ccc43)cnn2c1C [Compound 5], which inhibition at 6.7 ppm is on record?
A: ≥ 70%

Q: How did the inhibition at 6.7 ppm turn out when Cc1ccc2c(C3=NC(C)(C)C(F)(F)c4c(F)cccc43)cnn2c1C [Compound 4] was run?
A: ≥ 70%

Q: Cc1cccc2c(C3=NC(C)(C)C(F)(F)c4ccccc43)cnn12 [Compound 2] was tested. Which inhibition at 6.7 ppm did it give?
A: ≥ 70%

Q: How did the inhibition at 6.7 ppm turn out when Cc1ccc2c(C3=NC(C)(C)C(F)(F)c4ccccc43)cnn2c1C [Compound 1] was run?
A: ≥ 70%

Q: Cc1ccc2c(C3=NC(C)(C)C(F)(F)c4ccccc43)cnn2c1 [Compound 3] was tested. Which inhibition at 6.7 ppm did it give?
A: ≥ 70%
